Reference: publication PMC9127186, “Molecular Basis Underlying Hepatobiliary and Renal Excretion of Phenolic Acids of Salvia miltiorrhiza Roots (Danshen)” (Frontiers in Pharmacology, 2022)

Key:
rat Oct2 = target: T1, rat Oct2 (Rattus norvegicus, UniProt Q9R0W2); experiment: Cellular transport assay, HEK-293 cells expressing rat Oct2; conditions: Danshen phenolic acid at 100 μM final concentration, 10 min; rat Oct2-transfected vs mock cells
T1 sequence (Q9R0W2 1-555): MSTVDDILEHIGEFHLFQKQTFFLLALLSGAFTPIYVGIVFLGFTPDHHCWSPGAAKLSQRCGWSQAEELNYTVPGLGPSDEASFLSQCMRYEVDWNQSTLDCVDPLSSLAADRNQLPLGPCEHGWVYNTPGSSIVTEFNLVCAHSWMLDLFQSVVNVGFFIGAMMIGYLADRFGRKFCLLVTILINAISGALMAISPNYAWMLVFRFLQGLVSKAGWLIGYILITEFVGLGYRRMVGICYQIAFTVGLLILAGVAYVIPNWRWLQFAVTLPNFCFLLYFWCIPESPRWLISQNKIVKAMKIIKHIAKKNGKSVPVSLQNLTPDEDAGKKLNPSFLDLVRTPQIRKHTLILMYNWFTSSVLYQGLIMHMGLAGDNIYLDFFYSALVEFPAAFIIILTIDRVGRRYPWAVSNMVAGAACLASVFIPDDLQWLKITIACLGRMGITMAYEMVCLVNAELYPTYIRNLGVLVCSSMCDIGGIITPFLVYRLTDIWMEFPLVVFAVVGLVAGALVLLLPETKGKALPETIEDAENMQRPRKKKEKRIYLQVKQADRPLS

rat Pept1 = target: T2, rat Pept1 (Rattus norvegicus, UniProt P51574); experiment: Cellular transport assay, HEK-293 cells expressing rat Pept1; conditions: Danshen phenolic acid at 100 μM final concentration, 10 min, incubation pH 6.0; rat Pept1-transfected vs mock cells
T2 sequence (P51574 1-710): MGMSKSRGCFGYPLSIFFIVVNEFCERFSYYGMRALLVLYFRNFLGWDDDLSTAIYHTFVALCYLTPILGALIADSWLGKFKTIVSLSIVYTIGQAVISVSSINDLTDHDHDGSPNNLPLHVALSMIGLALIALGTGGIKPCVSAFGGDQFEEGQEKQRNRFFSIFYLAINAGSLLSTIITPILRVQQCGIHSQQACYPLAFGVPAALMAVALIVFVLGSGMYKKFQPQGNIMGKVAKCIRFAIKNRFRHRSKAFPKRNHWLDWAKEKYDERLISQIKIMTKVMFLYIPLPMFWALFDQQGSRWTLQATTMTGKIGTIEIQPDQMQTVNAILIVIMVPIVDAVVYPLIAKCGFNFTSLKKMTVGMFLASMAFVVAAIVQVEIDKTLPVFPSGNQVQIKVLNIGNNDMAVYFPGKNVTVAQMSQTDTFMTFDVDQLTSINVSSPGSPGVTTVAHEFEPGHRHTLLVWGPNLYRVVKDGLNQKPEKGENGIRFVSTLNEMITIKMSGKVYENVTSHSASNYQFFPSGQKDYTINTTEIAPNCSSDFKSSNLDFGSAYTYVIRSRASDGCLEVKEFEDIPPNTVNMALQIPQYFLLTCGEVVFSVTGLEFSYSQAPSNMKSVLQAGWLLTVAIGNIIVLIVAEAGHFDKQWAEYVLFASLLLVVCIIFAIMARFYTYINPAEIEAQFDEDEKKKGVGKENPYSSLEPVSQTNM

human OCT1 = target: T3, human OCT1 (Homo sapiens, UniProt O15245); experiment: Cellular transport assay, HEK-293 cells expressing human OCT1; conditions: Danshen phenolic acid at 100 μM final concentration, 10 min; human OCT1-transfected vs mock cells
T3 sequence (O15245 1-554): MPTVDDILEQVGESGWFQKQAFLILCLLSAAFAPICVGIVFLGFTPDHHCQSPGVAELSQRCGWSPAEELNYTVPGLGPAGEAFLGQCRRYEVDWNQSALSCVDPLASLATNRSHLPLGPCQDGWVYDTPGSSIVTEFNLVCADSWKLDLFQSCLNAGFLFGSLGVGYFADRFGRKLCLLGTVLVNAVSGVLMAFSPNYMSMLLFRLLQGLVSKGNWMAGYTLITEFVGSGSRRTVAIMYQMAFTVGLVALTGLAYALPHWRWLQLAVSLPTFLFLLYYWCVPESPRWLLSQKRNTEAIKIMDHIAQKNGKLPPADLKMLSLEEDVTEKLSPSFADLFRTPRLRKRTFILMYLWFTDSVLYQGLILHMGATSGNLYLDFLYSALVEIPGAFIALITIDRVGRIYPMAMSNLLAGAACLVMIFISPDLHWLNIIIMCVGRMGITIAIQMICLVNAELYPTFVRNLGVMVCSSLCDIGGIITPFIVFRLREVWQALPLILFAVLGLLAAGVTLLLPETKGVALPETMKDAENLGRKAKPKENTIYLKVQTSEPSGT

human OCT3 = target: T4, human OCT3 (Homo sapiens, UniProt O75751); experiment: Cellular transport assay, HEK-293 cells expressing human OCT3; conditions: Danshen phenolic acid at 100 μM final concentration, 10 min; human OCT3-transfected vs mock cells
T4 sequence (O75751 1-556): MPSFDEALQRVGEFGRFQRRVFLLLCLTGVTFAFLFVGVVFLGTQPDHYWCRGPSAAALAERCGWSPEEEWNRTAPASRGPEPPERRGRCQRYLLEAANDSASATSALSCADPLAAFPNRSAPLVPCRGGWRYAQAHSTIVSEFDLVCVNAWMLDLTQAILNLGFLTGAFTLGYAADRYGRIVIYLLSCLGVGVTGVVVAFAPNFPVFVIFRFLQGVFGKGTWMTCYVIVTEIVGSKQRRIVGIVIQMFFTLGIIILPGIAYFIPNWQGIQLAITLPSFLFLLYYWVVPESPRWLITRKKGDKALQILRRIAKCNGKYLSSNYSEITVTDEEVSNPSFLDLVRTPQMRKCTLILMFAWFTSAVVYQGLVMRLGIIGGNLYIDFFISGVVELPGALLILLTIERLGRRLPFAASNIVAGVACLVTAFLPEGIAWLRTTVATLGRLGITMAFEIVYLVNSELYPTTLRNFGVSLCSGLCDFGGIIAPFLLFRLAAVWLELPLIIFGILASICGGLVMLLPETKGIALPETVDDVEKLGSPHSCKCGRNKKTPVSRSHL

[1] = parameters: method as in Lu et al., 2008; conditions: ref Lu et al., 2008; cited from earlier work

Compound: O=C(/C=C/c1ccc(O)c2c1[C@H](C(=O)O)[C@@H](c1ccc(O)c(O)c1)O2)O[C@H](Cc1ccc(O)c(O)c1)C(=O)O [Lithospermic acid, lithospermic acid]
- TransportTC/TransportMC ratio (net transport ratio) (rat Oct2): 1.11 ± 0.32
- TransportTC/TransportMC ratio (net transport ratio) (rat Pept1): 1.31 ± 0.32
- TransportTC/TransportMC ratio (net transport ratio) (human OCT1): 1.56 ± 0.26
- TransportTC/TransportMC ratio (net transport ratio) (human OCT3): 0.84 ± 0.15

Compound: O=C(O)c1ccc(O)c(O)c1 [Protocatechuic acid, protocatechuic acid]
- membrane permeability [1]: fairly good
- TransportTC/TransportMC ratio (net transport ratio) (rat Oct2): 0.92 ± 0.08
- TransportTC/TransportMC ratio (net transport ratio) (rat Pept1): 1.37 ± 0.36
- TransportTC/TransportMC ratio (net transport ratio) (human OCT1): 1.09 ± 0.33
- TransportTC/TransportMC ratio (net transport ratio) (human OCT3): 0.94 ± 0.24

Compound: O=C(/C=C/c1ccc(O)c(O)c1)O[C@H](Cc1ccc(O)c(O)c1)C(=O)O [Rosmarinic acid, rosmarinic acid]
- membrane permeability [1]: poor
- TransportTC/TransportMC ratio (net transport ratio) (human OCT3): 0.75 ± 0.23

Compound: O=C(O)Cc1c(/C=C/C(=O)O[C@H](Cc2ccc(O)c(O)c2)C(=O)O)ccc(O)c1O [Salvianolic acid D, salvianolic acid D]
- membrane permeability [1]: poor
- TransportTC/TransportMC ratio (net transport ratio) (rat Oct2): 1.44 ± 0.24
- TransportTC/TransportMC ratio (net transport ratio) (rat Pept1): 1.43 ± 0.36
- TransportTC/TransportMC ratio (net transport ratio) (human OCT1): 1.04 ± 0.24
- TransportTC/TransportMC ratio (net transport ratio) (human OCT3): 0.94 ± 0.32

Compound: salvianolic acid B
- TransportTC/TransportMC ratio (net transport ratio) (rat Oct2): 1.08 ± 0.21
- TransportTC/TransportMC ratio (net transport ratio) (rat Pept1): 1.21 ± 0.45
- TransportTC/TransportMC ratio (net transport ratio) (human OCT1): 1.03 ± 0.07
- TransportTC/TransportMC ratio (net transport ratio) (human OCT3): 0.75 ± 0.38
